pIC50: −log10 of the molar value.

For one assay, the target named is T1, EGFR T790M/L858R (Homo sapiens, UniProt P00533, L858R/T790M).
T1 construct: purchased Life technology (Madison, Wis.)
In words: EGFR T790M/L858R enzyme HTRF inhibition assay. The assay is classed as biochemical. The following applies: 20 μM ATP, read-out: EGFR L858R/T79M IC50. The procedure: (§1) Enzyme: EGFR wild type, EGFR T790M/L858R, EGFR T790M and INSR were purchased from Life technology (Madison, Wis.), EGFR d746-750/T790M was purchased from Carna Biosciences (Japan).
(§2) HTRF Kit was purchased from Cis-Bio International which contained the Eu-labeled TK1 antibody, XL665 and biotin-labeled TK1 polypeptide substrates.
(§3) Detecting instrument: Envision (PerkinElmer).
(§4) The test compound was diluted 3-fold to obtain 10 doses of which the final concentration was from 300 nM to 0.015 nM.
EGFR T790M/L858R Enzyme Reaction Mixture System:
0.04 nM EGFR T790M/L858R, 1 μM biotin-TK1 peptide, 20 μM ATP enzyme buffer, a total of which was 10 μL. The reaction plate was white Proxiplate 384-Plus plate (PerkinElmer) and the mixture was reacted at 23° C. for 60 minutes.
(§5) Reaction Detection: 10 μL of detection reagent containing Antibody 2 nM and XL665 62.5 nM was added, and the reagent was incubated at 23° C. for 60 minutes. The plates were read by Envision.
(§6) The reading is converted to the suppression rate (%) by the following formula […]/(Max-Min)*100%. IC50 Data was measured by four-parameter curve fitting (Model 205 in XLFITS, IDBS).

The target of a further assay is T2, EGFR wild type (Homo sapiens, UniProt P00533).
T2 construct: purchased Life technology (Madison, Wis.)
T2 sequence (P00533 25-1210): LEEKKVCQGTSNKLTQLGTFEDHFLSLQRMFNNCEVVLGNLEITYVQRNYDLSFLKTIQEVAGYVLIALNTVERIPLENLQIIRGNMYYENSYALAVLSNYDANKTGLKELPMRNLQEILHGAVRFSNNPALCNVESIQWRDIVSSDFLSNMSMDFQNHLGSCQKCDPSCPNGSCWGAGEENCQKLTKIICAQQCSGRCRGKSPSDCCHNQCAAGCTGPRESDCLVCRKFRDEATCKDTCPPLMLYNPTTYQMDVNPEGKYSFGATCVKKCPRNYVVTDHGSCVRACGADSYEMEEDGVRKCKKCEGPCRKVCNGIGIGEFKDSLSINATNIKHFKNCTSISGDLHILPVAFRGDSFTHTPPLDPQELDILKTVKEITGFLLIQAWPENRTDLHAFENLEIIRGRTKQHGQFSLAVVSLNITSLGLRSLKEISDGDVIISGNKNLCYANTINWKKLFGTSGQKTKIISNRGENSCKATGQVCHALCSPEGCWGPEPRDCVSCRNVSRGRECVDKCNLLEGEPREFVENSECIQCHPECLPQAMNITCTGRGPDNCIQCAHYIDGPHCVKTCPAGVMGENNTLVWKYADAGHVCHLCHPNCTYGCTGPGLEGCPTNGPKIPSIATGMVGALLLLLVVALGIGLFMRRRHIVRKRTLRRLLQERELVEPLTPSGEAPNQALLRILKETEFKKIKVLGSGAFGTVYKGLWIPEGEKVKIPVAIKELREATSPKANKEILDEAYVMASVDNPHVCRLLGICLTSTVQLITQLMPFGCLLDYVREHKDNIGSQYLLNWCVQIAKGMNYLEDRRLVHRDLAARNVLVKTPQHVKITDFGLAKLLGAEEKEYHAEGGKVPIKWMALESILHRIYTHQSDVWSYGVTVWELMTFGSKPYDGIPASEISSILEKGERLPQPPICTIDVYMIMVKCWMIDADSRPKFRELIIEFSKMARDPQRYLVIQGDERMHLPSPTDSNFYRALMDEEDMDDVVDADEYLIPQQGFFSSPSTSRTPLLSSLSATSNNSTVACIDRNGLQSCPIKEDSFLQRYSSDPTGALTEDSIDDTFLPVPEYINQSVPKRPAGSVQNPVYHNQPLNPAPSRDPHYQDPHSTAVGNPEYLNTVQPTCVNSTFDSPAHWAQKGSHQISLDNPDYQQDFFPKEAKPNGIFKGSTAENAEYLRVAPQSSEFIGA
In words: Wild-type EGFR enzyme HTRF inhibition assay. The assay is classed as biochemical. The following applies: 25 μM ATP, read-out: EGFR WT IC50. The method, then:
as §1, §2, §3, §4
Wild-Type EGFR Enzyme Reaction Mixture System:
0.05 nM Wild-type EGFR, 1 μM biotin-TK1 peptide, 25 μM ATP enzyme buffer, a total of which was 10 μL. The reaction plate was white Proxiplate 384-Plus plate (PerkinElmer) and the mixture was reacted at 23° C. for 60 minutes.
as §5, §6

The next assay deals with T3, EGFR d746-750/T790M (Homo sapiens, UniProt P00533, DEL746-750/T790M).
T3 construct: purchased Carna Biosciences (Japan)
T3 sequence (P00533 with tags, fused parts or gaps DEL746-750/T790M limits assumed): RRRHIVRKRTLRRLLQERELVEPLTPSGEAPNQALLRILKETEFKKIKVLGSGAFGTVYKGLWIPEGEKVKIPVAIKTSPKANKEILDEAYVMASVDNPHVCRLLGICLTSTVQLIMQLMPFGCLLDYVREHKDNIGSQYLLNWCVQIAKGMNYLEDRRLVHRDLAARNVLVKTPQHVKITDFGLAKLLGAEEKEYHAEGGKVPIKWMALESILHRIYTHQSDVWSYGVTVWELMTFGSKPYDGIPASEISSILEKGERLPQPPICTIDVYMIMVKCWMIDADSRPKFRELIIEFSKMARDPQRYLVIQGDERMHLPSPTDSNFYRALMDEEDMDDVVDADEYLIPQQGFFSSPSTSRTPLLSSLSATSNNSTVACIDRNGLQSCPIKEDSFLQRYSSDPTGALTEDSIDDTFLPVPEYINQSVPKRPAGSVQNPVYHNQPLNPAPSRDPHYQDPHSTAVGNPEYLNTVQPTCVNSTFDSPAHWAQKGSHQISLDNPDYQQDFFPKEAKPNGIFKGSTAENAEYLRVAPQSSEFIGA
In words: EGFR d746-750/T790M enzyme HTRF inhibition assay. Conditions: 40 μM ATP. The assay is classed as biochemical. The method, then:
as §1, §2, §3, §4
EGFR d746-750/T790M Enzyme Reaction Mixture System:
0.025 nM EGFR d746-750/T790M, 1 μM biotin-TK1 peptide, 40 μM ATP enzyme buffer, a total of which was 10 μL. The reaction plate was white Proxiplate 384-Plus plate (PerkinElmer) and the mixture was reacted at 23° C. for 60 minutes.
as §5, §6

The test system of assay [1] is NCI-H1975 cells EGFR L858R/T790M. In words: NCI-H1975 cell viability assay (Cell Titer-Glo, 6 days). Conditions: Homo sapiens, 144 h. The assay is classed as cell-based. The method, then:
(§7) RPMI1640, fetal bovine serum, penicillin/streptomycin solution were purchased from Life Technology (Madison, Wis.). Cell Titer-Glo luminescent cell viability reagents were purchased from Promega (Madison, Wis.). A431 cell line and NCI-H1975 cell line were purchased from European Collection of Cell Cultures (ECACC). Plate Reader Instrument: Envision (PerkinElmer).
(§8) 384-Well plates, 300 of A431 cells and NCI-H1975 cells were inoculated per well, a volume of which was 45 μL. And the plates were incubated overnight in a CO2 incubator at 37° C. The test compound was diluted 3-fold to obtain 10 dose concentrations, the final concentrations of which were from 10 μM to 0.508 nM, two wells. The middle plates were filled with 49 μL of medium per well. 1 μL of compound in the gradient dilution compound plates was transferred to the middle plates and mixed well. And then 5 μL liquid in the middle plates was taken to the cell plates. The cells were incubated in a CO2 incubator for 6 days. After 6 days, 25 μL of detection reagents was added. And then the mixture was incubated at room temperature for 10 minutes and the plates were read by Envision.
(§9) The reading is converted to the suppression rate by the following formula (%) (Max-Sample)/(Max-Min)*100%. IC50 Data was measured by Four-parameter curve fitting (Model 205 in XLFIT5, IDBS).
(ATP-based viability assays read luminescence as a measure of living cells.)

The test system of the next assay is A431 cells EGFR WT. In words: A431 cell viability assay (Cell Titer-Glo, 6 days). The assay is classed as cell-based, human. Conditions: for pIC50: Homo sapiens, A-431, 144 h, A431 cells, 6 days; for A431:NCI-H1975 (ratio): ratio of cell IC50 A431 to NCI-H1975. The procedure:
as §7, §8, §9

T1 sequence (P00533 25-1210 T790M/L858R): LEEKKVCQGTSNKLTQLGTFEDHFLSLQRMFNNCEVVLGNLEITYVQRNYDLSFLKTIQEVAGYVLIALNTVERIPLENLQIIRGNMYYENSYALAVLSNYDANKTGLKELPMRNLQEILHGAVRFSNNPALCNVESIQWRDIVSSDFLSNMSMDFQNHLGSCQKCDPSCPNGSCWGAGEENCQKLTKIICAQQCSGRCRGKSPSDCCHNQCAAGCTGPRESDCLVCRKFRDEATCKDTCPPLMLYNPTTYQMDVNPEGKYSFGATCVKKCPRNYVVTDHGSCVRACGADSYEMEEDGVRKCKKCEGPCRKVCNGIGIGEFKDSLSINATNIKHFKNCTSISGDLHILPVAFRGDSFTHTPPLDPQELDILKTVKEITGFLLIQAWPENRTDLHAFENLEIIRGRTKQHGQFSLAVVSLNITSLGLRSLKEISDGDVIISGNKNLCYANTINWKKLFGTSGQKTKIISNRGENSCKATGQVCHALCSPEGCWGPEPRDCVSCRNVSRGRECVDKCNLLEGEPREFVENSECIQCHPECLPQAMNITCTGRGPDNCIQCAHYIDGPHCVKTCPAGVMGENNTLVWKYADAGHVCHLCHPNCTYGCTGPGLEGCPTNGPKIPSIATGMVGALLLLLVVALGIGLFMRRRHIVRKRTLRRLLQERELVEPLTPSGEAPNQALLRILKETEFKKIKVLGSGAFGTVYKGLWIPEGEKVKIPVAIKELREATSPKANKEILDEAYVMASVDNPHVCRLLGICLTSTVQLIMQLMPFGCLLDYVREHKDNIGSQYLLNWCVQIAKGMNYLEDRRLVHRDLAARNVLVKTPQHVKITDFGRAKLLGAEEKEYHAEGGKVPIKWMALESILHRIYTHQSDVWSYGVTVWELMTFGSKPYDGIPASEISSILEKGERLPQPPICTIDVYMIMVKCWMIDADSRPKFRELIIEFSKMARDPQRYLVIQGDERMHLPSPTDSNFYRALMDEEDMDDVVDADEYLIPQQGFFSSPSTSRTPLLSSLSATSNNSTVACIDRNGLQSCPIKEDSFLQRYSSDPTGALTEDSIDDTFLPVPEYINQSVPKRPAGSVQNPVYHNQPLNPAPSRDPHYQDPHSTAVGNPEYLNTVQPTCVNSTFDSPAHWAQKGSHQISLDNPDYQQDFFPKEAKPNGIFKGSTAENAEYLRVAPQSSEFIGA

Consider `C=CC(=O)Nc1cc(Nc2ncc(F)c(-c3c4n(c5ncccc35)CCOC4)n2)c(OC)cc1N(C)CCN(C)C` [Embodiment 39, N-(5-((4-(8,9-Dihydro-6H-pyrido[2,3]pyrrolo[4,5-α][1,4]oxazin-5-yl)-5-fluoropyrimidin-2-yl)amino)-2-((2-(dimethylamino)ethyl)(methyl)amino)-4-methoxyphenyl)acrylamide], for which the pIC50 on EGFR T790M/L858R is 9.30; at EGFR wild type, 8.28; against EGFR d746-750/T790M, 9.22; in assay [1], 6.54; in the assay with A431 cells EGFR WT, 5.80. Moreover, the “A431:NCI-H1975 (ratio)” value in the assay with A431 cells EGFR WT was 5.5.
As to `C=CC(=O)Nc1cc(Nc2nccc(-c3c4n(c5ccccc35)CCC4)n2)c(OC)cc1N(C)C(C)CN(C)C` (stereo not drawn) [Embodiment 11, N-(5-((4-(2,3-Dihydro-1H-pyrrolo[1,2-a]indol-9-yl)pyrimidin-2-yl)amino)-2-((1-(dimethylamino)propan-2-yl)(methyl)amino)-4-methoxyphenyl)acrylamide], the pIC50 was 9.64 on EGFR T790M/L858R; 9.28 at EGFR wild type; 9.70 against EGFR d746-750/T790M; 8.21 in assay [1]; 6.57 with A431 cells EGFR WT. Moreover, the “A431:NCI-H1975 (ratio)” value in the assay with A431 cells EGFR WT is 44.3.
On to `C=CC(=O)Nc1cc(Nc2ncc(F)c(-c3c4n(c5ccccc35)CCOC4)n2)c(OC)cc1N(C)CCNC` [Embodiment 31, N-(5-((4-(3,4-Dihydro-1H-[1,4]oxazino[4,3-a]indol-10-yl)-5-fluoropyrimidin-2-yl)amino)-4-methoxy-2-(methyl(2-(methylamino)ethyl)amino)phenyl)acrylamide], for which the pIC50 at EGFR T790M/L858R was 9.70; at EGFR wild type, 8.70; at EGFR d746-750/T790M, 9.52; in assay [1] it was 7.02; in the assay with A431 cells EGFR WT, 5.89. In addition, the “A431:NCI-H1975 (ratio)” value with A431 cells EGFR WT is reported as 13.4.
Consider `C=CC(=O)Nc1cc(Nc2ncc(F)c(-c3c4n(c5ccccc35)CCOC4)n2)c(OC)cc1N(C)CC(C)(C)N(C)C` [Embodiment 32, N-(5-((4-(3,4-Dihydro-1H-[1,4]oxazino[4,3-a]indol-10-yl)-5-fluoropyrimidin-2-yl)amino)-2-((2-(dimethylamino)-2-methylpropyl)(methyl)amino)-4-methoxyphenyl)acrylamide], for which the pIC50 at EGFR T790M/L858R was 10.00; on EGFR wild type it was 9.52; against EGFR d746-750/T790M, 9.70; in assay [1] it was 8.52; with A431 cells EGFR WT, 6.22. Further, the “A431:NCI-H1975 (ratio)” value in the assay with A431 cells EGFR WT is recorded as 199.
With `C=CC(=O)Nc1cc(Nc2nccc(-c3c4n(c5ccccc35)CCC4)n2)c(OC)cc1C#CCN(C)C` [Embodiment 8, N-(5-((4-(2,3-Dihydro-1H-pyrrolo[1,2-a]indol-9-yl)pyrimidin-2-yl)amino)-2-(3-(dimethylamino)prop-1-yn-1-yl)-4-methoxyphenyl)acrylamide], the pIC50 on EGFR T790M/L858R is 9.04; on EGFR wild type, 8.28; against EGFR d746-750/T790M it was 9.19; in assay [1] it was 6.32; in the assay on A431 cells EGFR WT, 5.26. For the same molecule, the “A431:NCI-H1975 (ratio)” value in the assay with A431 cells EGFR WT is 11.5.
Consider `C=CC(=O)Nc1cc(Nc2nccc(-c3c4n(c5ccccc35)CCC4)n2)c(OC)cc1N1CC(N(C)C)C1` [Embodiment 2, N-(5-((4-(2,3-Dihydro-1H-pyrrolo[1,2-a]indol-9-yl)pyrimidin-2-yl)amino)-2-(3-(dimethylamino)azetidin-1-yl)-4-methoxyphenyl)acrylamide], for which the pIC50 on EGFR T790M/L858R is 9.26; on EGFR wild type it was 8.37; at EGFR d746-750/T790M, 9.17; in assay [1] it was 5.32; in the assay on A431 cells EGFR WT, under 5.00. The “A431:NCI-H1975 (ratio)” value in the assay with A431 cells EGFR WT is reported as over 2.1.
As to `C=CC(=O)Nc1cc(Nc2nccc(-c3c4n(c5ccccc35)CCOC4)n2)c(OC)cc1N(CC)CCNCC` [Embodiment 21, N-(5-((4-(3,4-Dihydro-1H-[1,4]oxazino[4,3-a]indol-10-yl)pyrimidin-2-yl)amino)-2-(ethyl(2-(ethylamino)ethyl)amino)-4-methoxyphenyl)acrylamide], the pIC50 is 7.30 in assay [1] and 5.84 in the assay on A431 cells EGFR WT. Also, the “A431:NCI-H1975 (ratio)” value in the assay on A431 cells EGFR WT was determined as 29.
For the molecule `C=CC(=O)Nc1cc(Nc2nccc(-c3c4n(c5ccccc35)CCC4)n2)c(OC)cc1CCCN(C)C` [Embodiment 10], the pIC50 at EGFR T790M/L858R is 8.66; on EGFR wild type, 7.56; on EGFR d746-750/T790M it was 8.72; in assay [1], 6.55; in the assay with A431 cells EGFR WT it was 5.65. The “A431:NCI-H1975 (ratio)” value with A431 cells EGFR WT came out at 8.0.
Take `C=CC(=O)Nc1cc(Nc2nccc(-c3c4n(c5ccccc35)CC(F)(F)CC4)n2)c(OC)cc1N(C)CCN(C)C` [Embodiment 14, N-(5-((4-(7,7-Difluoro-8,9-dihydro-6H-pyrido[1,2-a]indol-10-yl)pyrimidin-2-yl)amino)-2-((2-(dimethylamino)ethyl)(methyl)amino)-4-methoxyphenyl)acrylamide]: the pIC50 on EGFR T790M/L858R is 9.57; on EGFR wild type it was 9.22; at EGFR d746-750/T790M, 9.48; in assay [1], 7.89; in the assay with A431 cells EGFR WT it was 6.87. In the assay on A431 cells EGFR WT, the “A431:NCI-H1975 (ratio)” value is 10.3.
Consider `C=CC(=O)Nc1cc(Nc2nccc(-c3c4n(c5ccccc35)CCOC4)n2)c(OC(C)C)cc1N(C)CCN(C)C` [Embodiment 29, N-(5-((4-(3,4-Dihydro-1H-[1,4]oxazino[4,3-a]indol-10-yl)pyrimidin-2-yl)amino)-2-((2-(dimethylamino)ethyl)(methyl)amino)-4-isopropoxyphenyl)acrylamide], for which the pIC50 is 9.42 on EGFR T790M/L858R; 8.29 on EGFR wild type; 9.42 against EGFR d746-750/T790M; 7.60 in assay [1]; 5.93 with A431 cells EGFR WT. The “A431:NCI-H1975 (ratio)” value with A431 cells EGFR WT stood at 47.
In turn, `C=CC(=O)Nc1cc(Nc2nccc(-c3c4n(c5ccccc35)CCOC4)n2)c(OC)cc1N(CC)CCN(C)CC` [Embodiment 22, N-(5-((4-(3,4-Dihydro-1H-[1,4]oxazino[4,3-a]indol-10-yl)pyrimidin-2-yl)amino)-2-(ethyl(2-(ethyl(methyl)amino)ethyl)amino)-4-methoxyphenyl)acrylamide] showed a pIC50 in assay [1] of 7.30. Besides, in the assay on A431 cells EGFR WT, the pIC50 was 5.88 and the “A431:NCI-H1975 (ratio)” value was found to be 26.
On to `C=CC(=O)Nc1cc(Nc2nccc(-c3c4n(c5ccccc35)CCOC4)n2)c(OC)cc1N(C)CCNC(C)C` [Embodiment 23, N-(5-((4-(3,4-Dihydro-1H-[1,4]oxazino[4,3-a]indol-10-yl)pyrimidin-2-yl)amino)-2-((2-(isopropylamino)ethyl)(methyl)amino)-4-methoxyphenyl)acrylamide], for which the pIC50 in assay [1] was 7.20; in the assay on A431 cells EGFR WT, 5.80. In addition, the “A431:NCI-H1975 (ratio)” value in the assay with A431 cells EGFR WT was 25.
In the same order, the values of `C=CC(=O)Nc1cc(Nc2nccc(-c3c4n(c5ccccc35)CCOC4)n2)c(OC)cc1N(C)CCN1CCC1` [Embodiment 26, N-(2-((2-(Azetidin-1-yl)ethyl)(methyl)amino)-5-((4-(3,4-dihydro-1H-[1,4]oxazino[4,3-a]indol-10-yl)pyrimidin-2-yl)amino)-4-methoxyphenyl)acrylamide] are 6.99, 5.66 and 22.
